The results in this text go back to patent publication US20070128217A1 (priority 2003, published 2007).

Assay [1] relates to control sera (pooled serum of ten healthy LUMC hospital workers; commercial negative donor pooled serum from the Dutch bloodbank). It counts as binding, human. More on the design: Binding of Control serum LUMC to linear peptides / Binding of Control serum Blood-bank to linear peptides / Binding of Control serum LUMC to looped peptides / Binding of Control Serum Blood-Bank to Looped peptides / Binding of Control serum LUMC to linear peptides of the protein M of SARS-CoV Urbani / Binding of Control serum Blood-bank to linear peptides of the protein M of SARS-CoV Urbani / Binding of Control serum LUMC to looped peptides of the protein M of SARS-CoV Urbani / Binding of Control Serum Blood-Bank to Looped peptides of the protein M of SARS-CoV Urbani: unit not given here.

The test system of assay [2] is rabbit serum obtained by immunizing a rabbit with the SARS-CoV strain Frankfurt 1. It counts as binding. Further details: Binding of a rabbit serum to linear peptides / Binding of a rabbit serum to looped peptides / Rabbit serum linear peptides / Rabbit serum looped peptides / Binding of a rabbit serum to linear peptides of protein N of SARS-CoV Urbani (Rabbit serum linear peptides) / Binding of a rabbit serum to looped/cyclic peptides of protein N of SARS-CoV Urbani (Rabbit serum looped peptides): unit not given here.

Take SGTYEGNSPFHPLAD: in assay [1], the “Binding of Control Serum Blood-Bank to Looped peptides” value was 0.8, the “Binding of Control serum Blood-bank to linear peptides” value amounted to 0.8, the “Binding of Control serum LUMC to linear peptides” value was 0.8 and the “Binding of Control serum LUMC to looped peptides” value was 0.8. Also, in assay [2], the “Rabbit serum linear peptides” value is listed as 0.6 and the “Rabbit serum looped peptides” value was determined as 0.6.

Turning to SGVANPAMDPIYDEP, in assay [1], the “Binding of Control Serum Blood-Bank to Looped peptides” value was found to be 0.5, the “Binding of Control serum Blood-bank to linear peptides” value was 0.4, the “Binding of Control serum LUMC to linear peptides” value is reported as 0.3 and the “Binding of Control serum LUMC to looped peptides” value amounted to 0.5. Also, in assay [2], the “Binding of a rabbit serum to linear peptides” value was 1.1 and the “Binding of a rabbit serum to looped peptides” value is 0.6.

Regarding SGVKDYVVVHGYFTE, in assay [1], the “Binding of Control Serum Blood-Bank to Looped peptides” value is 0.2, the “Binding of Control serum Blood-bank to linear peptides” value worked out at 0.5, the “Binding of Control serum LUMC to linear peptides” value is on record as 0.6 and the “Binding of Control serum LUMC to looped peptides” value worked out at 0.5. Moreover, in assay [2], the “Binding of a rabbit serum to linear peptides” value was determined as 0.1 and the “Binding of a rabbit serum to looped peptides” value is recorded as 0.7.

Regarding SITAQPVKIDNASPA, in assay [1], the “Binding of Control Serum Blood-Bank to Looped peptides” value amounted to 0.4, the “Binding of Control serum Blood-bank to linear peptides” value came to 0.6, the “Binding of Control serum LUMC to linear peptides” value is 0.6 and the “Binding of Control serum LUMC to looped peptides” value came to 0.4. Further, in assay [2], the “Binding of a rabbit serum to linear peptides” value came to 0.1 and the “Binding of a rabbit serum to looped peptides” value turned out to be 0.4.

For SKKTTKLVVILRIGT, in assay [1], the “Binding of Control Serum Blood-Bank to Looped peptides” value was 0.7, the “Binding of Control serum Blood-bank to linear peptides” value turned out to be 0.6, the “Binding of Control serum LUMC to linear peptides” value was found to be 0.8 and the “Binding of Control serum LUMC to looped peptides” value was found to be 0.7. In assay [2], the “Recognition of the peptide by the rabbit serum” value is listed as “recognized”.

In the case of SRVKNLNSSEGVPDL, in assay [1], the “Binding of Control Serum Blood-Bank to Looped peptides” value was 0.5, the “Binding of Control serum Blood-bank to linear peptides” value is on record as 0.9, the “Binding of Control serum LUMC to linear peptides” value is on record as 0.7 and the “Binding of Control serum LUMC to looped peptides” value was determined as 0.7. In addition, in assay [2], the “Binding of a rabbit serum to linear peptides” value is 0.7 and the “Binding of a rabbit serum to looped peptides” value was 0.0.

In the case of STPKLKEDYQIGGYS, in assay [1], the “Binding of Control Serum Blood-Bank to Looped peptides” value came to 0.2, the “Binding of Control serum Blood-bank to linear peptides” value is 0.7, the “Binding of Control serum LUMC to linear peptides” value is listed as 0.7 and the “Binding of Control serum LUMC to looped peptides” value was 0.3. For the same sequence, in assay [2], the “Binding of a rabbit serum to linear peptides” value turned out to be 0.1 and the “Binding of a rabbit serum to looped peptides” value is 0.3.

TDHAGSNDNIALLVQ: in assay [1], the “Binding of Control Serum Blood-Bank to Looped peptides of the protein M of SARS-CoV Urbani” value is given as 1.0, the “Binding of Control serum Blood-bank to linear peptides of the protein M of SARS-CoV Urbani” value was found to be 0.7, the “Binding of Control serum LUMC to linear peptides of the protein M of SARS-CoV Urbani” value came to 1.0 and the “Binding of Control serum LUMC to looped peptides of the protein M of SARS-CoV Urbani” value was found to be 1.0. Moreover, in assay [2], the “Rabbit serum linear peptides” value is recorded as 0.1 and the “Rabbit serum looped peptides” value was 0.2.

For TFFIFNKLVKDPPNV, in assay [1], the “Binding of Control Serum Blood-Bank to Looped peptides” value worked out at 0.6, the “Binding of Control serum Blood-bank to linear peptides” value came to 0.7, the “Binding of Control serum LUMC to linear peptides” value is recorded as 0.6 and the “Binding of Control serum LUMC to looped peptides” value is 0.6. In assay [2], the “Binding of a rabbit serum to linear peptides” value is reported as 0.1 and the “Binding of a rabbit serum to looped peptides” value is listed as 0.5.

Consider TINCQDPAGGALIAR, for which, in assay [1], the “Binding of Control Serum Blood-Bank to Looped peptides” value stood at 1.3, the “Binding of Control serum Blood-bank to linear peptides” value was 1.0, the “Binding of Control serum LUMC to linear peptides” value was 0.6 and the “Binding of Control serum LUMC to looped peptides” value was determined as 1.0. Also, in assay [2], the “Rabbit serum linear peptides” value was 0.6 and the “Rabbit serum looped peptides” value was 0.7.

With TMVQTCTPNVTINCQ, in assay [1], the “Binding of Control Serum Blood-Bank to Looped peptides” value came to 0.9, the “Binding of Control serum Blood-bank to linear peptides” value is recorded as 0.7, the “Binding of Control serum LUMC to linear peptides” value worked out at 0.7 and the “Binding of Control serum LUMC to looped peptides” value was found to be 0.7. Also, in assay [2], the “Rabbit serum linear peptides” value amounted to 0.5 and the “Rabbit serum looped peptides” value is reported as 0.4.

With TTVLLKEPCPSGTYE, in assay [1], the “Binding of Control Serum Blood-Bank to Looped peptides” value was 0.9, the “Binding of Control serum Blood-bank to linear peptides” value worked out at 0.9, the “Binding of Control serum LUMC to linear peptides” value is listed as 0.9 and the “Binding of Control serum LUMC to looped peptides” value was 1.0. For the same sequence, in assay [2], the “Rabbit serum linear peptides” value came to 0.4 and the “Rabbit serum looped peptides” value amounted to 0.5.

Turning to TVLLKEPCPSGTYEG, in assay [1], the “Binding of Control Serum Blood-Bank to Looped peptides” value was found to be 0.7, the “Binding of Control serum Blood-bank to linear peptides” value was found to be 0.7, the “Binding of Control serum LUMC to linear peptides” value is 0.8 and the “Binding of Control serum LUMC to looped peptides” value is on record as 0.8. In assay [2], the “Rabbit serum linear peptides” value was 0.2 and the “Rabbit serum looped peptides” value is 0.2.

For the sequence VKDPPNVQIHTIDGS, in assay [1], the “Binding of Control Serum Blood-Bank to Looped peptides” value is 0.5, the “Binding of Control serum Blood-bank to linear peptides” value was 0.4, the “Binding of Control serum LUMC to linear peptides” value is given as 0.4 and the “Binding of Control serum LUMC to looped peptides” value worked out at 0.6. Further, in assay [2], the “Binding of a rabbit serum to linear peptides” value came to 0.1 and the “Binding of a rabbit serum to looped peptides” value turned out to be 0.5.

With VKIDNASPASTVHAT, in assay [1], the “Binding of Control Serum Blood-Bank to Looped peptides” value was 0.5, the “Binding of Control serum Blood-bank to linear peptides” value is 0.7, the “Binding of Control serum LUMC to linear peptides” value is on record as 0.7 and the “Binding of Control serum LUMC to looped peptides” value was 0.6. In assay [2], the “Binding of a rabbit serum to linear peptides” value is reported as 0.2 and the “Binding of a rabbit serum to looped peptides” value came out at 0.3.

Turning to VLKTMSLYMAISPKF, in assay [1], the “Binding of Control Serum Blood-Bank to Looped peptides” value is recorded as 0.7, the “Binding of Control serum Blood-bank to linear peptides” value is 0.9, the “Binding of Control serum LUMC to linear peptides” value was found to be 0.5 and the “Binding of Control serum LUMC to looped peptides” value is reported as 0.6. Further, in assay [2], the “Binding of a rabbit serum to linear peptides” value came to 0.3 and the “Binding of a rabbit serum to looped peptides” value turned out to be 0.5.

On to VRGTTVLLKEPCPSG, for which, in assay [1], the “Binding of Control Serum Blood-Bank to Looped peptides” value is reported as 0.8, the “Binding of Control serum Blood-bank to linear peptides” value was found to be 0.8, the “Binding of Control serum LUMC to linear peptides” value is 1.0 and the “Binding of Control serum LUMC to looped peptides” value worked out at 0.9. Also, in assay [2], the “Rabbit serum linear peptides” value came to 0.4 and the “Rabbit serum looped peptides” value is recorded as 0.4.

VRQLFKPLTKKNYSE: in assay [1], the “Binding of Control Serum Blood-Bank to Looped peptides of the protein X3 of SARS-CoV Urbani” value stood at 0.9, the “Binding of Control serum Blood-bank to linear peptides of the protein X3 of SARS-CoV Urbani” value came to 0.9, the “Binding of Control serum LUMC to linear peptides of the protein X3 of SARS-CoV Urbani” value stood at 0.7 and the “Binding of Control serum LUMC to looped peptides of the protein X3 of SARS-CoV Urbani” value was 0.7. Moreover, in assay [2], the “Rabbit serum linear peptides” value turned out to be 0.4 and the “Rabbit serum looped peptides” value is 2.2.

With VTGGIAIAMACIVGL, in assay [1], the “Binding of Control Serum Blood-Bank to Looped peptides of the protein M of SARS-CoV Urbani” value came to 0.7, the “Binding of Control serum Blood-bank to linear peptides of the protein M of SARS-CoV Urbani” value amounted to 1.1, the “Binding of Control serum LUMC to linear peptides of the protein M of SARS-CoV Urbani” value came out at 1.3 and the “Binding of Control serum LUMC to looped peptides of the protein M of SARS-CoV Urbani” value is 0.8. In assay [2], the “Rabbit serum linear peptides” value is 0.3 and the “Rabbit serum looped peptides” value is 0.4.

In the case of VTINCQDPAGGALIA, in assay [1], the “Binding of Control Serum Blood-Bank to Looped peptides” value came out at 0.5, the “Binding of Control serum Blood-bank to linear peptides” value was 0.8, the “Binding of Control serum LUMC to linear peptides” value stood at 0.6 and the “Binding of Control serum LUMC to looped peptides” value was found to be 0.5. Besides, in assay [2], the “Rabbit serum linear peptides” value is 0.5 and the “Rabbit serum looped peptides” value is 0.0.

As for WVTGGIAIAMACIVG, in assay [1], the “Binding of Control Serum Blood-Bank to Looped peptides of the protein M of SARS-CoV Urbani” value was found to be 0.8, the “Binding of Control serum Blood-bank to linear peptides of the protein M of SARS-CoV Urbani” value is on record as 0.8, the “Binding of Control serum LUMC to linear peptides of the protein M of SARS-CoV Urbani” value was 0.4 and the “Binding of Control serum LUMC to looped peptides of the protein M of SARS-CoV Urbani” value was found to be 0.9. In assay [2], the “Rabbit serum linear peptides” value is listed as 0.4 and the “Rabbit serum looped peptides” value came out at 0.2.

As for YDANYFVCWHTHNYD, in assay [1], the “Binding of Control Serum Blood-Bank to Looped peptides” value amounted to 0.3, the “Binding of Control serum Blood-bank to linear peptides” value is 0.7, the “Binding of Control serum LUMC to linear peptides” value amounted to 0.7 and the “Binding of Control serum LUMC to looped peptides” value is 0.4. In assay [2], the “Binding of a rabbit serum to linear peptides” value was 0.1 and the “Binding of a rabbit serum to looped peptides” value was determined as 0.4.

In the case of YHYQECVRGTTVLLK, in assay [1], the “Binding of Control Serum Blood-Bank to Looped peptides” value is reported as 0.7, the “Binding of Control serum Blood-bank to linear peptides” value was 0.8, the “Binding of Control serum LUMC to linear peptides” value is given as 0.7 and the “Binding of Control serum LUMC to looped peptides” value turned out to be 0.8. In assay [2], the “Rabbit serum linear peptides” value was determined as 1.7 and the “Rabbit serum looped peptides” value amounted to 0.6.

Take YKLNTDHAGSNDNIA: in assay [1], the “Binding of Control Serum Blood-Bank to Looped peptides of the protein M of SARS-CoV Urbani” value is on record as 0.6, the “Binding of Control serum Blood-bank to linear peptides of the protein M of SARS-CoV Urbani” value is on record as 0.6, the “Binding of Control serum LUMC to linear peptides of the protein M of SARS-CoV Urbani” value was determined as 0.7 and the “Binding of Control serum LUMC to looped peptides of the protein M of SARS-CoV Urbani” value amounted to 0.6. In assay [2], the “Rabbit serum linear peptides” value is 0.1 and the “Rabbit serum looped peptides” value stood at 0.1.

Regarding YQIGGYSEDRHSGVK, in assay [1], the “Binding of Control Serum Blood-Bank to Looped peptides” value is 0.3, the “Binding of Control serum Blood-bank to linear peptides” value is given as 0.3, the “Binding of Control serum LUMC to linear peptides” value was 0.4 and the “Binding of Control serum LUMC to looped peptides” value came to 0.3. For the same sequence, in assay [2], the “Binding of a rabbit serum to linear peptides” value is 0.1 and the “Binding of a rabbit serum to looped peptides” value came out at 0.5.
